# Laboratory results taken from patent US8785393B2, “Ophthalmic pharmaceutical compositions of DP2 receptor antagonists” (Panmira Pharmaceuticals, LLC, priority 2009, dated 2014).
# What was measured:
# [1] = tested on: mouse model of ragweed-induced allergic conjunctivitis; assay: Mouse ragweed allergic conjunctivitis; assay type: in vivo; settings: topical 0.3% in PBS, three times daily, days 9-15, FIG. 5
# Description: A mouse model of ragweed-induced allergic conjunctivitis was used to test the efficacy of topical administration of a DP2 receptor antagonist to the eye on the development of allergic conjunctivitis. Compound 2 was evaluated in a mouse model of ocular allergy. In this model, a systemic sensitization with an allergen (Short Ragweed, SRW) was followed by topical challenge with the same allergen. For sensitization a suspension of 50 μg of short ragweed allergen (SRW, Greer, Lenoir, NC, USA) 25 μl of Aluminum Hydroxide (13 mg/ml, Sigma Aldrich) was injected into both hind rear footpads (Day 0). On days 9 through 15, topical treatment with compound 2 (0.3% in PBS), positive control (Prednisolone Acetate 1% in hypromellose), or vehicle control (PBS) was administered three times daily. Mice were dosed topically to the central cornea using a calibrated micropipette, with a 5 μL drop of treatment in each eye. On days 13 through 15 mice were challenged with topical doses of 1000 μg SRW suspension in 5 μl PBS in each eye. SRW was prepared fresh daily, and used within 3 hours of mixing, and mixed well before administration to ensure homogeneity. Thirty minutes after the final challenge (Day 15) clinical signs (discharge, lid swelling hyperemia, chemosis, and squinting) were evaluated using the aid of a dissecting microscope. A cumulative score was also recorded including all parameters measured with the exception of squinting.
# [2] = tested on: guinea pig model of allergic conjunctivitis; assay: Guinea pig model of allergic conjunctivitis (ovalbumin); assay type: in vivo, Hartley Guinea pigs
# Description: A guinea pig model of allergic conjunctivitis is used to test the effect of topical administration of a DP2 receptor antagonist to the eye on the development of allergic conjunctivitis. Male Hartley Guinea pigs ages 4-8 weeks (300-500 grams) at the beginning of the experiment were sensitized by intraperitoneal injection of ovalbumin [0.5 ml of a 100 μg/ml solution in Imject Alum. An additional 0.5 ml of the ovalbumin (OVA) solution is injected subcutaneous in the proximity of the lymph nodes (Muise et al., 2002). Twenty one days after sensitization, guinea pigs received an ocular challenge. Briefly, animals were secured within a towel and placed in a lateral recumbent position. Ten microliters of saline or OVA (2.5% in Saline) was topically applied to each eye, followed by 2-3 manually forced blinks. This procedure is repeated again on day 23. Clinical scoring of redness (using a scale of 0-3), edema (using a scale of 0-3) and discharge (using a scale of 0-4) were evaluated 90 minutes after challenge on day 23. The itch/scratch response was observed and recorded (using a scale of 0-3) for the first 30 minutes after challenge on day 23. The DP2 receptor antagonist (compound 2; {2′-[(N-cyclopropanecarbonyl-N-ethyl-amino)-methyl]-6-methoxy-4′-trifluoromethyl-biphenyl-3-yl}-acetic acid) was administered on days 21-23 by topical application using the procedure described above in a concentration of 300 ng/eye in PBS vehicle. Oral administration was also evaluated by gavage of compound 2 (10 mg/kg) prepared in 0.5% Methylcellulose or water. The means±standard error of the mean were plotted and analyzed by one-way ANOVA using Graphpad Prizm.
# [3] = tested on: respiratory syncytial virus (RSV) eye infection; assay type: in vivo; settings: topical 60 ng/eye once daily, 14 days
# Description: A mouse model of respiratory syncytial virus (RSV) eye infection is used to test the effects of ocular application of DP2 receptor antagonist compound on RSV-induced ocular immunopathology (Bitko V, et al., J. Virol. 2007; 81(2):783-90; Bitko V, et al., Nat. Med. 2005; 11(1):50-5). Each mouse eye is topically treated with 60 ng DP2 receptor antagonist compound or vehicle (sterile saline) in a volume of 2 μl. The DP2 receptor antagonist compound is instilled 40 min after virus inoculum and then once daily over the entire duration of the protocol (14 days).
# Instillation of virus and inhibitor in the eye. Female BALB/c mice, 6 to 8 weeks old, are purchased from Charles River Laboratories. […]
# Ocular pathology. Ocular disease is evaluated with a slit lamp biomicroscope (Bitko V, et al., J. Virol. 2007; 81(2):783-90)15; Girgis et al., Invest. […] Pathology is scored on a scale of 0 to 5 as follows: 0=clear eye; 1=slight redness in the corners; 2=moderate redness and injection; 3=conjunctival and corneal injection with ciliary flush; 4=extensive injection, generally associated with some mucus; 5=most extensive injection, associated with mucus. Eyes are examined in a coded fashion with the reader unaware of the treatment given. The presence of gummy residue or mucin in the eyes is recorded. […]
# [4] = scored 30 min after final challenge (Day 15)
# [5] = topical 300 ng/eye in PBS, days 21-23, scored 90 minutes after challenge on day 23, FIG. 3
smiles,measurement,setting,value
"CCN(Cc1cc(C(F)(F)F)ccc1-c1cc(CC(=O)O)ccc1OC)C(=O)C1CC1 [compound 2, {2′-[(N-cyclopropanecarbonyl-N-ethyl-amino)-methyl]-6-methoxy-4′-trifluoromethyl-biphenyl-3-yl}-acetic acid]",cumulative clinical score,[1]; all parameters except squinting,significantly reduced
same,chemosis,[1]; [4],significantly reduced
same,discharge,[1]; [4],significantly reduced
same,lid swelling,[1]; [4],significantly reduced
same,"any endpoint (redness, edema, discharge, itch/scratch, clinical score)",[2]; oral gavage 10 mg/kg,failed to impact any endpoint
same,cummulative clinical score,"[2]; topical 300 ng/eye in PBS, days 21-23, after ocular antigen challenge, FIG. 3",significantly reduced
same,itch/scratch response,"[2]; topical 300 ng/eye in PBS, days 21-23, first 30 minutes after challenge on day 23, FIG. 3",trend toward reduction
same,Ocular edema,[2]; [5],trend toward reduction
same,discharge,[2]; [5],significantly reduced
same,redness,[2]; [5],significantly reduced
same,RSV eye pathology,[3]; FIG. 4 (A),reduced
same,eye IL4 induction,[3]; FIG. 4 (B),reduced
